In US20160153991A1, “Synbodies for Detection of Human Norovirus” (priority 2013, published 2016):

Columns and labels:
Type in all cases: binding, Norovirus
nVLP GII.4 = assay: Surface plasmon resonance (SPR) screening of optimized peptides against GII.4; details: unpurified peptides against nVLP GII.4; for kd-1: SPR dissociation rate; for % Stability / Avg Binding (Spot 1/2): SPR
Method: These 96 peptides were synthesized and tested unpurified against GII.4 via surface plasmon resonance (SPR), a sample of which is shown in FIG. 3. Peptides candidates were analyzed and selected for improved binding and slower dissociation rate. Finally, a list of 10 peptide candidates with improved binding and slower dissociation rates were chosen to construct bivalent peptide affinity reagents (synbodies).

GII.4 Minerva VLP = tested on: GII.4 Minerva VLP
GII.4 Sydney VLP = GII.4 Sydney VLP (VP1 identity 95%)

For “RWHRVKLRSHTELNRYIGSC [Mut Peptide-92, optimized peptide]”, the “kd-1” value (nVLP GII.4) was 0.00355 s, the “% Stability” value (nVLP GII.4) was 57% and the “Avg Binding (Spot 1/2)” value (nVLP GII.4) was 229.5.

For “RWVRVKLRSHTELNRYIGSC [Mut Peptide-93, optimized peptide]”, the “kd-1” value (nVLP GII.4) was 0.00332 s, the “% Stability” value (nVLP GII.4) was 60% and the “Avg Binding (Spot 1/2)” value (nVLP GII.4) was 274.2.

With LLYNKTFPHGRWSPSYPGSC [nVLP-1WT] the “kd-1” value (nVLP GII.4) was 0.00785 s, the “% Stability” value (nVLP GII.4) was 25% and the “Avg Binding (Spot 1/2)” value (nVLP GII.4) was 71.5.

In the case of “Syn 6-6: synbody 6-6 from Table 2; scaffold not stated (Table 2 lists both nVLP6-6-1571 and nVLP6-6MAP2) (RWHRVDLRSHTELPRYIGSC)”, the “Enrichment Factor from 1 ng/μL solution” value (GII.4 Minerva VLP; GII.4 Minerva VLP (VP1 identity 100%), 1 ng/μL solution) is reported as 16, the “enrichment of VLP (in words)” value (GII.4 Minerva VLP; either GII.4 Minerva or both GII.4 Minerva and GII.4 Sydney) is reported as “enrichment” and the “Enrichment Factor from 1 ng/μL solution” value (GII.4 Sydney VLP) is reported as “n.e”.

With RWHRVDLRSHTELPRYIGSC [nVLP-6WT] the “kd-1” value (nVLP GII.4) was 0.00513 s, the “% Stability” value (nVLP GII.4) was 37% and the “Avg Binding (Spot 1/2)” value (nVLP GII.4) was 175.7.

For DWARSNTSRSMDFNLGWGSC [nVLP-2WT], the “kd-1” value (nVLP GII.4) was 0.0233 s and the “Avg Binding (Spot 1/2)” value (nVLP GII.4) was 2.5.

“RWVRVKLRSHTKLRYIGSC [Mut Peptide-94, optimized peptide]” was tested, and the “kd-1” value (nVLP GII.4) was 0.00294 s, the “% Stability” value (nVLP GII.4) was 63% and the “Avg Binding (Spot 1/2)” value (nVLP GII.4) was 358.2.

For “DWARKNNKRKMNFNLGWGSC [Mut Peptide-60, optimized peptide]”, the “kd-1” value (nVLP GII.4) was 0.00487 s, the “% Stability” value (nVLP GII.4) was 44% and the “Avg Binding (Spot 1/2)” value (nVLP GII.4) was 134.3.

With “AWARSNNSRSKAFNLGWGSC [Mut Peptide-81, optimized peptide]” the “kd-1” value (nVLP GII.4) was 0.00455 s, the “% Stability” value (nVLP GII.4) was 45% and the “Avg Binding (Spot 1/2)” value (nVLP GII.4) was 127.9.

In the case of “VWARKNNKRKKDFNAGWGSC [Mut Peptide-53, optimized peptide]”, the “kd-1” value (nVLP GII.4) is reported as 0.00408 s, the “% Stability” value (nVLP GII.4) is reported as 51% and the “Avg Binding (Spot 1/2)” value (nVLP GII.4) is reported as 188.8.

In the case of “SWARSNNKRSKAFNLGWGSC [Mut Peptide-78, optimized peptide]”, the “kd-1” value (nVLP GII.4) is reported as 0.00431 s, the “% Stability” value (nVLP GII.4) is reported as 46% and the “Avg Binding (Spot 1/2)” value (nVLP GII.4) is reported as 168.8.
